Reference: patent publication US4386099A, “Imidazolylphenyl amidines, pharmaceutical compositions containing same and use thereof” (Istituto de Angeli S.p.A., priority 1980, dated 1983)
Read-outs that look alike come from different tables or passages of the source.

Experiments:
histamine H2-receptors [1] = molecular target: T1, histamine H2-receptors (Cavia porcellus, UniProt P47747); experiment: In vitro inhibitory activity in histamine-induced tachycardia (positive chronotropic effect, isolated guinea pig atria); assay type: cell-based; details: reduction of histamine (10^-6 g/ml) H2-evoked response, pH 7.4, 32° C.
T1 construct: isolated guinea pig atria suspended in an organ bath; from tissue; host or cells: isolated guinea pig atria
Description: The positive chronotropic effect has been investigated in isolated guinea pig atria suspended in an organ bath (50 ml) containing oxygenated (O2 : 95%, CO2 : 5%) Krebs-Henseleit solution (pH 7.4) maintained at 32° C. The myocardial preparation, loaded at 1 gm of isometric tension, is allowed to stabilize for 60 minutes and myocardial contractions are recorded through an isometric lever connected to a strain-gauge coupler. The instantaneous rate is monitored with a cardiotachymeter and a heat-writing pen recorder. After a control run, responses (tachycardia) to histamine (10^-6 g/ml) are obtained three times at 30 minute intervals. The test compounds are added to the bath to the desired final concentration, and the atria are again injected with histamine. The chronotropic response obtained in the presence of the antagonist is then compared to the control response to histamine, and the percent reduction of the histamine H2 -evoked response is calculated. […] 3 Smooth Muscle, Ed Daniel E. E. Patron, M., Plenum Press. New York (1975), and Ash and Schild, Br. J. Pharmacol. Chemother. 27 427-439 (1966).

histamine H2-receptors [2] = molecular target: T2, histamine H2-receptors (Rattus norvegicus, UniProt P25102); experiment: In vivo anti-secretory activity in histamine-induced gastric secretion (stomach perfused rat); details: iv
T2 construct: from tissue; host or cells: stomach of the anaesthetised rat, in vivo
Description: The preparation of the animals in general anaesthesia (urethane, 1 gm/kg i.p.) and constant temperature, is achieved by inserting and typing in place polyethyl tubes (PE 50) in the esophagus and in the pyloric-antral region. After the stomach is washed to remove residual food, continuous perfusion of the stomach is started with saline, 0.5 ml/min (37° C.), primed by a Jobling peristaltic pump. After 30 minutes of perfusion adaptation, the stomach perfusate is collected in 30 minute samples, and the samples are titrated for acid content, expressed as μEq of 1 N NaOH. As acid output becomes constant, as a control, intravenous perfusion of histamine (1 mg/kg.hr) is started and maintained throughout the experimental period. […] The ED50 values are then calculated by standard procedure.

[3] = in vivo; cited from earlier work
H2-receptor [4] = details: cited from earlier work; for Potency as H2-receptor antagonist: in vitro testing, vs cimetidine
[5] = in vivo; cited from earlier work; remark: listed apart in the source
[6] = in vivo; cited from earlier work; remark: listed apart in the source
H2-receptor [7] = details: in man, vs burimamide; cited from earlier work
gastric acid secretion = details: in vivo testing, vs cimetidine; cited from earlier work
[8] = stomach perfused rat, histamine 1 mg/kg.hr i.v., expressed with regard to the compound as a base, read-out: ED50

T2 sequence (P25102 whole entry, the tested form may be a part): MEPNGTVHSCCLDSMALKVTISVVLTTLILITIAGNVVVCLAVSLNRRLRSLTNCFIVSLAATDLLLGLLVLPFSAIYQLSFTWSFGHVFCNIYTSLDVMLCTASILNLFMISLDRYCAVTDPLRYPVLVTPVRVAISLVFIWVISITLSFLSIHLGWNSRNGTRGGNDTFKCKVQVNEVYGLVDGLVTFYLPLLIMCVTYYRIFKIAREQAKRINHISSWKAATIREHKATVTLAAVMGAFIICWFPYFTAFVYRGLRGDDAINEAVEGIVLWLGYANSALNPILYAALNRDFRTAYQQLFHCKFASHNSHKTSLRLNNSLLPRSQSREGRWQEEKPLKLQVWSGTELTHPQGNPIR
T1 sequence (P47747 whole entry): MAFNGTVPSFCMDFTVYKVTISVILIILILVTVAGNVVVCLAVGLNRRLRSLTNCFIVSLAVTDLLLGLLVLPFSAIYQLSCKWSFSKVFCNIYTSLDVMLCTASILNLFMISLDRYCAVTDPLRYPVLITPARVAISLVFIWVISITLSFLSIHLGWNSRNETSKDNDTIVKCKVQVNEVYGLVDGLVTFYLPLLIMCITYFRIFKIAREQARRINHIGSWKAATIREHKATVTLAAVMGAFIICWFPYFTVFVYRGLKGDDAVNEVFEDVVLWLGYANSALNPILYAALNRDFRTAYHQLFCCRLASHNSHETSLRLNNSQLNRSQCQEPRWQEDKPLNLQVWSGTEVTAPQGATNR

Structure (SMILES) | EC50 (histamine H2-receptors [1]) | ED50 (histamine H2-receptors [2]; [8]) | also measured
C=CC(C)NC=Nc1ccc(-c2c[nH]cn2)cc1 (stereo not drawn) [J, N-(α-Methylallyl)-N'-[4-(imidazol-4-yl)-phenyl]-formamidine] | 168 nM | 0.042 mg/kg | 
CNC(=S)NCCCCc1cnc[nH]1 [burimamide] |  |  | Oral bioavailability [3]: seemed to lack sufficient oral bioavailability
CN/C(=N/CCSCc1nc[nH]c1C)NC#N [Cimetidine] |  |  | ED50 (histamine H2-receptors [2]; rat): 0.56 mg/kg; Potency as H2-antagonist (H2-receptor [4]; cimetidine vs metiamide): as potent as metiamide; Toxic side effects [5]: devoid of the toxic side effects of metiamide; Half-life [6]: relatively short
C(=Nc1ccc(-c2c[nH]cn2)cc1)NC1CC1 [I, N-Cyclopropyl-N'-[4-(imidazol-4-yl)-phenyl]-formamidine] | 379 nM | 0.0366 mg/kg | 
CCCNC=Nc1ccc(-c2c[nH]cn2)cc1 [D, N-n-Propyl-N'-[4-(imidazol-4-yl)-phenyl]-formamidine] | 44 nM | 0.0111 mg/kg | 
C/N=C(\S)NCCSCc1[nH]cnc1C [Metiamide] |  |  | Potency and oral activity (H2-receptor [7]): more potent and orally active in man than burimamide; Toxic side effects [5]: toxic side effects (agranulocytosis)
CC(C)CNC=Nc1ccc(-c2c[nH]cn2)cc1 [F, N-Isobutyl-N'-[4-(imidazol-4-yl)-phenyl]-formamidine] | 65 nM | 0.0259 mg/kg | 
C(=Nc1ccc(-c2c[nH]cn2)cc1)NCC1CC1 [H, N-Cyclopropylmethyl-N'-[4-(imidazol-4-yl)-phenyl]-formamidine] | 48 nM | 0.0235 mg/kg | 
CC(C)=CCNC=Nc1ccc(-c2c[nH]cn2)cc1 [G] | 74 nM | 0.0559 mg/kg | 
CCC(C)NC=Nc1ccc(-c2c[nH]cn2)cc1 (centres unmarked) [Compound E, N-sec-Butyl-N'-[4-(imidazol-4-yl)-phenyl]-formamidine] | 150 nM | 0.0223 mg/kg | 
CNC(=C[N+](=O)[O-])NCCSCc1ccc(CN(C)C)o1 [ranitidine] |  |  | Potency as inhibitor of gastric acid secretion (gastric acid secretion): more potent than cimetidine; Potency as H2-receptor antagonist (H2-receptor [4]): more potent than cimetidine
C=CCNC=Nc1ccc(-c2c[nH]cn2)cc1 [C, N-Allyl-N'-[4-(imidazol-4-yl)-phenyl]-formamidine] | 93 nM | 0.024 mg/kg | 
CC1(C)CC1CNC=Nc1ccc(-c2c[nH]cn2)cc1 (centres unmarked) [L, N-(2,2-Dimethyl)-cyclopropylmethyl-N'-[4-(imidazol-4-yl)-phenyl]-formamidine] | 500 nM | 0.034 mg/kg | 
CC(C)(C)CNC=Nc1ccc(-c2c[nH]cn2)cc1 [K, N-Neopentyl-N'-[4-(imidazol-4-yl)-phenyl]-formamidine] | 121 nM | 0.03 mg/kg | 
CNC(=NCCSCc1csc(N=C(N)N)n1)NC#N [tiotidine] |  |  | Potency as inhibitor of gastric acid secretion (gastric acid secretion): more potent than cimetidine; Potency as H2-receptor antagonist (H2-receptor [4]): more potent than cimetidine
CCNC=Nc1ccc(-c2c[nH]cn2)cc1 [Compound A, N-Ethyl-N'-[4-(imidazol-4-yl)-phenyl]-formamidine] | 300 nM | 0.02 mg/kg | 
CC(C)NC=Nc1ccc(-c2c[nH]cn2)cc1 [B, N-Isopropyl-N'-[4-(imidazol-4-yl)-phenyl]-formamidine] | 92 nM | 0.0129 mg/kg | 
